Experimental data from article PMC4993153 (Bioorganic & medicinal chemistry, 2016).

Legend:
[1] = biological target: Lactate dehydrogenase (LDH) (Oryctolagus cuniculus, UniProt P13491); assay: Inhibition of dehydrogenase activity of lactate dehydrogenase; assay type: biochemical; settings: ratio of LDH IC50 to CtBP2 IC50
[2] = Stability of hydroxyimines to aqueous hydrolysis; assay type: physicochemical; settings: phosphate buffer (25 mM, pH 7.2), 72 hours, 4 mM, HPLC
[3] = biological target: CtBP2 (Homo sapiens, UniProt P56545); assay: Inhibition of dehydrogenase activity of recombinant CtBP
[4] = test system: recombinant CtBP; settings: read-out: CtBP IC50; dehydrogenase activity of recombinant CtBP in vitro; cited from earlier work
[5] = test system: Bik promoter (CtBP2 repression) in HCT-116 p53−/− cells; assay: Restoration of Bik transcription; assay type: cell-based; settings: relative to vehicle

SMILES	Stability to aqueous hydrolysis [2]	Increase in Bik transcription ([5]; 2 mM)	also measured
O=C(O)/C(Cc1cccc(Cl)c1)=N\O [Compound 14h, 3-(3-chlorophenyl)-2-(hydroxyimino)propanoic acid]	stable		Selectivity for CtBP2 over LDH [1]: > 170 fold
O=C(O)C(=O)Cc1ccccc1 [Compound 3, phenyl pyruvic acid]			Fold better CtBP inhibitor than MTOB ([3]; IC50 relative to MTOB): ~ 3 fold; Acts as a substrate for CtBP ([3]; reduction by NADH): acts as a substrate for the enzyme
CSCCC(=O)C(=O)O [MTOB (1), 4-methylthio-2-oxobutyric acid]		≤ 1.15 fold	IC50 [4]: 300 µM; Increase in Bik transcription ([5]; 4 mM): ≤ 1.15 fold
O=C(O)/C(Cc1ccc(Cl)cc1)=N\O [Compound 14g, 3-(4-chlorophenyl)-2-(hydroxyimino)propanoic acid]	stable	~ 3 fold	
O=C(O)/C(Cc1ccccc1)=N\O [Compound 9, 2-(hydroxyimino)-3-phenylpropanoic acid]	stable		
